Reference: patent US12350273B2, “Treatment of SMA” (Hoffmann-La Roche Inc., priority 2017, dated 2025)

Columns and labels:
human iPSCs = test: Cell cycle analysis of human iPSCs (flow cytometry); type: cell-based; details: 24 h, 30 nM (positive control)
Experimental: (§1) For the analysis of the cell cycle, monkey stem cells were detached with Accutase (Stem Cell Technologies) and plated at 15000 cells/cm2 in 6 well plates coated with Matrigel (BD Biosciences) in MT medium supplemented with 10 ng/ml ActivinA, 15 ng/ml FGF2, and 10 μM Rock inhibitor. Cells were expanded for 1 day and then synchronized by starvation for 7 h in MT medium without supplements FGF2 and ActivinA. Before flow cytometry, cells were incubated for 24 h with fresh MT medium containing supplements FGF2 and ActivinA and test items at 80 nM, 400 nM, and 2000 nM or 30 nM rapamycin as positive control to arrest cells in G1 phase. Human stem cells were detached with Accutase (Stem Cell Technologies) and plated at 40000 cells/cm2 in 6 well plates coated with Matrigel (BD Biosciences) in mTeSR1 supplemented with 10 μM Rock Inhibitor Y-27632 (Sigma-Aldrich). Cells were expanded for 3 days with daily medium change. Since human iPSCs lose their properties during starvation by growth factor withdrawal, stem cells were synchronized with 200 ng/ml Nocodazole (Sigma-Aldrich) for 5 h and washed subsequently 2 times with mTesR1 Medium. Before flow cytometry, cells were incubated for 24 h with fresh TesR1 medium containing test items at 80 nM, 400 nM, and 2000 nM or 30 nM rapamycin as positive control to arrest cells in G1 phase.
(§2) For cell cycle analysis, human iPSCs were washed with PBS, detached with Accutase (Stem Cell Technologies) and collected by centrifugation. Cells were stained for 1 h at 37° C. with 600 ul of 7 AAD/Saponin/RNAse mix ([…] 7 AAD (#559925, BD), 50 μg/ml RNase, and 0.03% Saponin dissolved in FACS buffer (PBS, 5% FBS, 10 mM Hepes)). Cynomolgus monkey iPSCs were washed with PBS, detached with Accutase (Stem Cell Technologies) and collected by centrifugation. Cells were stained for 30 min at 37° C. in 300 ul standard MT medium (with FGF2 and ActivinA) containing 1 ul Vybrant Dye Cycle Violet Stain (#V35003, 1000× stock, Invitrogen) per ml medium. Additionally 2 ul 7 AAD (50 μg/ml 7 AAD) were added without permeabilization to label dead cells; cells were incubated for 10 min at 37° C. Flow cytometry analysis was performed using a Canto II cytometer (BD Biosciences) and data were analysed with the FlowJo software.

Cynomolgus monkey iPSCs = test: Cell cycle analysis of Cynomolgus monkey iPSCs (flow cytometry); type: cell-based; details: Cynomolgus monkey iPSCs, 24 h, 30 nM (positive control)
Experimental: as §1, §2

Structure (SMILES): CO[C@H]1C[C@@H]2CC[C@@H](C)[C@@](O)(O2)C(=O)C(=O)N2CCCC[C@H]2C(=O)O[C@H]([C@H](C)C[C@@H]2CC[C@@H](O)[C@H](OC)C2)CC(=O)[C@H](C)/C=C(\C)[C@@H](O)[C@@H](OC)C(=O)[C@H](C)C[C@H](C)/C=C/C=C/C=C/1C [Rapamycin, reference compound]
- percentage of events in G1 phase, mean (human iPSCs): 58.3%
- percentage of events in G2 phase, mean (human iPSCs): 30.5%
- percentage of events in S phase, mean (human iPSCs): 11.2%
- percentage of events in G1 phase, mean (Cynomolgus monkey iPSCs): 41.7%
- percentage of events in G2 phase, mean (Cynomolgus monkey iPSCs): 45.6%
- percentage of events in S phase, mean (Cynomolgus monkey iPSCs): 12.7%
